Laboratory results: patent publication US20100234238A1, “METHOD FOR PROFILING KINASE INHIBITORS” (Janssen Pharmaceutica N V, priority 2006, published 2010)

System: tyrosine kinase activity in lysates prepared from cell lines
Assay: PAMCHIP96 tyrosine peptide array profiling of lysates of 27 cell lines in absence or presence of MTKI
Format: biochemical
Conditions: 5 μM
Source text: PAMGENE technology using the tyrosine peptide PAMCHIP96 allows the kinetic detection of the phosphorylation of 144 tyrosine peptides spotted onto a 3-dimensional porous well of a 96-well plate (www.pamgene.com). This technology can be used to measure the activity of purified kinases and the effects of kinase inhibitors thereon. Phosphotyrosine peptides are detected using a mix of fluorescently labeled anti-phosphotyrosine antibodies. Phosphorylation of peptides can be followed in real time due to the possibility of removing the reaction mix for a few seconds during the assay by a pumping mechanism to allow CCD camera detection of phosphopeptides bound to the fluorescent antibody. These consecutive datapoints (quantified spot images) generate a kinetic curve for each individual peptide, and allow for the calculation of initial velocities and endpoints associated with each individual peptide.
Cells cultured in appropriate medium in T175 flasks, treated with compound if necessary, are harvested at 70-90% confluency.
Media is removed, cells are washed with 10 ml ice cold PBS containing 0.1 mM NaVO4 and lysed in 1 ml of M-PER buffer (PIERCE) containing phosphatase and protease inhibitors (HALT, PIERCE). Cells are collected by scraping, and centrifuged for 10 minutes at 12 000×g. Supernatant lysates are filtered through a 0.2 micrometer filter (Anotop 0.2 μm anopore filter; Whatmann). Lysates are flash frozen in liquid nitrogen and stored at −80C.
Just prior to the PAMCHIP experiment, total protein content is quantitated in the lysates and lysates are diluted to 1 mg/ml in a total volume of 200 μl, with M-PER phosphatase and protease inhibitors (HALT, PIERCE). 10 μg of total lysate (corresponding to 10 μl) will be used per well on the PAMCHIP96.
To all 200 μl lysates 10 units of benzonase (Novagen) is added and lysates are further incubated for 30 min on ice and next centrifuged for 10 minutes at 12 000×g. The supernatant is then 1:1 diluted with compound or DMSO diluted to the appropriate concentration in water, and lysates are further incubated exactly 60 min on ice. Meanwhile, a PAMCHIP96 tyrosine peptide chip (PAMGENE) is blocked with 2% BSA (filtered through a 0.2 μm anopore filter; Whatmann) using the standard setting of a PAMSTATION96 (PAMGENE).
The composition of the kinase buffer is as follows: 1×ABL buffer (NEB), 0.5 mg/ml BSA (from 10 mg/ml NEB stock), 100 μM ATP (dissolved and diluted in 1×ABL buffer), 5 μg/ml PY20-FITC (ExAlpha Biologicals, azide-free preparation). A twofold concentrated kinase buffer is prepared chilled on ice, DMSO or compound is added as appropriate, and the solution is added 1:1 to the (compound treated) ice cold lysates, and immediately applied to a tyrosine peptide PAMCHIP96. The assay is run on a PAMSTATION96 according to standard procedures: after loading of the plate, solution is pumped once onto the wells, a first exposure is read (150 mSec) and then a kinetic reading program (reading every 5 min for 150 mSec) is run for 60 min. Lysates are run in 6 technical replicates for each condition; replicates are always applied horizontally next to each other to avoid vertical strip effects of the chip.
The data (spot images) are further quantified and linked to the peptide identities using EVOLVE PAMGRID software (PAMGENE). The quantified data are then fit to a curve using CurveFitHT software (PAMGENE) using the Vinip2 curve fitting algorithm, applied on the first 30 min of the assay; the initial velocity is derived at the first kinetic time point read. All subsequent data analyses were done on initial velocities (Vini) using the software packages Omniviz and R (Ihaka, R. and Gentlemen, R. (1996) R: a language for data analysis and graphics. J. Comput. Graph. Stat., 5, 299-314).
After replacing the Vini's lower than 0.1 by 0.1, all Vini's were log 2-transformed to approach normality.

COc1cc2ncnc3c2cc1OCCCCCN(C)Cc1ccc(Br)cc1N3 [MTKI, 4,6-ethanediylidenepyrimido[4,5-b][6,1,12]benzoxadiazacyclopentadecine, 17-bromo-8,9,10,11,12,13,14,19-octahydro-20-methoxy-13-methyl-]
ratio of initial velocity of peptide phosphorylation (H3255 lysate, PECA1_706_718_Y713): 0.68 | ratio of initial velocity of peptide phosphorylation (H3255 lysate, PGFRB_768_780_Y771/Y775/Y778): 0.12 | ratio of initial velocity of peptide phosphorylation (H3255 lysate, PLCG1_764_776_Y771): 0.97 | ratio of initial velocity of peptide phosphorylation (H3255 lysate, PRRX2_202_214_Y214): 0.67 | ratio of initial velocity of peptide phosphorylation (H3255 lysate, RASA1_453_465_Y460): 0.65 | ratio of initial velocity of peptide phosphorylation (H3255 lysate, STAT2_683_695_Y690): 0.72 | ratio of initial velocity of peptide phosphorylation (H3255 lysate, SYN1_2_14_S9): 0.70 | ratio of initial velocity of peptide phosphorylation (H3255 lysate, TYRO3_679_691_Y686): 0.47 | ratio of initial velocity of peptide phosphorylation (NCI-N87 lysate, CDK7_157_169_S164): 0.82 | ratio of initial velocity of peptide phosphorylation (NCI-N87 lysate, CREB1_122_134_Y134/S133): 0.82 | ratio of initial velocity of peptide phosphorylation (NCI-N87 lysate, DDR2_733_745_Y740): 0.95 | ratio of initial velocity of peptide phosphorylation (NCI-N87 lysate, ENOG_37_49_Y43): 0.91 | ratio of initial velocity of peptide phosphorylation (NCI-N87 lysate, MK10_216_228_T221/Y223): 0.73 | ratio of initial velocity of peptide phosphorylation (NCI-N87 lysate, NCF1_313_325_S315/S320): 0.89 | ratio of initial velocity of peptide phosphorylation (NCI-N87 lysate, NPT2_501_513_T508): 0.88 | ratio of initial velocity of peptide phosphorylation (NCI-N87 lysate, PECA1_706_718_Y713): 0.82 | ratio of initial velocity of peptide phosphorylation (NCI-N87 lysate, PGFRB_768_780_Y771/Y775/Y778): 0.32 | ratio of initial velocity of peptide phosphorylation (NCI-N87 lysate, PLCG1_764_776_Y771): 0.78 | ratio of initial velocity of peptide phosphorylation (NCI-N87 lysate, PRRX2_202_214_Y214): 0.82 | ratio of initial velocity of peptide phosphorylation (NCI-N87 lysate, RASA1_453_465_Y460): 0.59 | ratio of initial velocity of peptide phosphorylation (NCI-N87 lysate, STAT2_683_695_Y690): 0.83 | ratio of initial velocity of peptide phosphorylation (NCI-N87 lysate, SYN1_2_14_S9): 0.75 | ratio of initial velocity of peptide phosphorylation (NCI-N87 lysate, TYRO3_679_691_Y686): 0.85 | ratio of initial velocity of peptide phosphorylation (SKBR3 lysate, CDK7_157_169_S164): 0.97 | ratio of initial velocity of peptide phosphorylation (SKBR3 lysate, CREB1_122_134_Y134/S133): 0.99 | ratio of initial velocity of peptide phosphorylation (SKBR3 lysate, DDR2_733_745_Y740): 0.93 | ratio of initial velocity of peptide phosphorylation (SKBR3 lysate, MK10_216_228_T221/Y223): 0.68 | ratio of initial velocity of peptide phosphorylation (SKBR3 lysate, NCF1_313_325_S315/S320): 0.94 | ratio of initial velocity of peptide phosphorylation (SKBR3 lysate, NPT2_501_513_T508): 0.77 | ratio of initial velocity of peptide phosphorylation (SKBR3 lysate, PECA1_706_718_Y713): 0.68 | ratio of initial velocity of peptide phosphorylation (SKBR3 lysate, PLCG1_764_776_Y771): 0.75 | ratio of initial velocity of peptide phosphorylation (SKBR3 lysate, PRRX2_202_214_Y214): 0.75 | ratio of initial velocity of peptide phosphorylation (SKBR3 lysate, RASA1_453_465_Y460): 0.88 | ratio of initial velocity of peptide phosphorylation (SKBR3 lysate, STAT2_683_695_Y690): 0.81 | ratio of initial velocity of peptide phosphorylation (SKBR3 lysate, SYN1_2_14_S9): 1.03 | ratio of initial velocity of peptide phosphorylation (SKBR3 lysate, TYRO3_679_691_Y686): 0.90 | ratio of initial velocity of peptide phosphorylation (SNU484 lysate, CDK7_157_169_S164): 0.67 | ratio of initial velocity of peptide phosphorylation (SNU484 lysate, CREB1_122_134_Y134/S133): 0.70 | ratio of initial velocity of peptide phosphorylation (SNU484 lysate, DDR2_733_745_Y740): 0.75 | ratio of initial velocity of peptide phosphorylation (SNU484 lysate, ENOG_37_49_Y43): 0.68 | ratio of initial velocity of peptide phosphorylation (SNU484 lysate, MK10_216_228_T221/Y223): 0.72 | ratio of initial velocity of peptide phosphorylation (SNU484 lysate, NCF1_313_325_S315/S320): 0.80 | ratio of initial velocity of peptide phosphorylation (SNU484 lysate, NPT2_501_513_T508): 0.85 | ratio of initial velocity of peptide phosphorylation (SNU484 lysate, PECA1_706_718_Y713): 0.64 | ratio of initial velocity of peptide phosphorylation (SNU484 lysate, PLCG1_764_776_Y771): 0.70 | ratio of initial velocity of peptide phosphorylation (SNU484 lysate, PRRX2_202_214_Y214): 0.67 | ratio of initial velocity of peptide phosphorylation (SNU484 lysate, RASA1_453_465_Y460): 0.58 | ratio of initial velocity of peptide phosphorylation (SNU484 lysate, STAT2_683_695_Y690): 0.73 | ratio of initial velocity of peptide phosphorylation (SNU484 lysate, SYN1_2_14_S9): 0.67 | ratio of initial velocity of peptide phosphorylation (SNU484 lysate, TYRO3_679_691_Y686): 0.85
